{"source": "ChEMBL document CHEMBL5241104", "about": "“Reactive metabolites of the anticonvulsant drugs and approaches to minimize the adverse drug reaction” (Eur J Med Chem, 2021)", "key": {"[1]": {"system": "Mus musculus", "assay": "Anticonvulsant activity in CD-1 mouse assessed as protection against maximal electroshock induced seizure at ip administrated for 30 mins", "assay_type": "functional", "settings": "CD-1, 0.5 h"}, "[2]": {"system": "Mus musculus", "assay": "Anticonvulsant activity in CD-1 mouse assessed as protection against Sc-Met induced seizure at ip administrated for 30 mins", "assay_type": "functional", "settings": "CD-1, 0.5 h"}, "[3]": {"assay": "Toxicity in CD-1 mouse assessed as median toxicity dose at ip administration for 30 mins by rotorod test", "assay_type": "organism-based", "settings": "in vivo"}, "[4]": {"system": "Mus musculus", "assay": "Anticonvulsant activity in Albino Swiss CD-1 mouse assessed as protection against maximal electroshock induced seizure at 100 mg/kg,ip administration", "assay_type": "functional"}, "[5]": {"system": "Mus musculus", "assay": "Anticonvulsant activity in Albino Swiss CD-1 mouse assessed as protection against Sc-Met induced seizure at 100 mg/kg,ip administration", "assay_type": "functional"}, "[6]": {"system": "Rattus norvegicus", "assay": "Anticonvulsant activity in Wistar rat assessed as protection against maximal electroshock induced seizure at po administration for 2 hrs", "assay_type": "functional"}, "[7]": {"system": "Rattus norvegicus", "assay": "Anticonvulsant activity in Wistar rat assessed as protection against maximal electroshock induced seizure at po administration for 4 hrs", "assay_type": "functional"}, "[8]": {"system": "Rattus norvegicus", "assay": "Anticonvulsant activity in Wistar rat assessed as protection against maximal electroshock induced seizure at po administration for 8 hrs", "assay_type": "functional"}, "[9]": {"assay": "Protective index, ratio of TD50 for toxicity in Wistar rat assessed as median toxicity dose at po administration for 2 hrs by rotorod test to ED50 for anticonvulsant activity in Wistar rat assessed as protection against maximal electroshock induced seizure at po administration for 2 hrs", "assay_type": "organism-based", "settings": "in vivo, read-out: Ratio TD50/ED50"}, "[10]": {"assay": "(§1) Protective index, ratio of TD50 for toxicity in Wistar rat assessed as median toxicity dose at po administration for 4 hrs by rotorod test to ED50 for anticonvulsant activity in Wistar rat assessed as protection against maximal electroshock induced seizure at po administration for 4 hrs", "assay_type": "organism-based", "settings": "in vivo, read-out: Ratio TD50/ED50"}, "[11]": {"assay": "Protective index, ratio of TD50 for toxicity in Wistar rat assessed as median toxicity dose at po administration for 8 hrs by rotorod test to ED50 for anticonvulsant activity in Wistar rat assessed as protection against maximal electroshock induced seizure at po administration for 8 hrs", "assay_type": "organism-based", "settings": "in vivo, read-out: Ratio TD50/ED50"}, "[12]": {"assay": "Displacement of 3[H]BTX from rat brain membrane voltage-sensitive sodium channel incubated for 1.5 hrs by scintillation counting analysis", "assay_type": "cell membranes"}, "[13]": {"system": "Mus musculus", "assay": "Anticonvulsant activity in Albino mouse assessed as protection against Sc-PTZ induced seizure at ip administration for 30 mins", "assay_type": "functional", "settings": "0.5 h"}, "[14]": {"system": "Mus musculus", "assay": "Anticonvulsant activity in CD-1 mouse assessed as recovery time against maximal electroshock induced seizure at 150 mg/kg,po administrated for 30 mins", "assay_type": "functional", "settings": "0.5 h"}, "[15]": {"system": "Mus musculus", "assay": "Anticonvulsant activity in CD-1 mouse assessed as recovery time against maximal electroshock induced seizure at 300 mg/kg,po administrated for 30 mins", "assay_type": "functional", "settings": "0.5 h"}, "[16]": {"system": "Mus musculus", "assay": "Anticonvulsant activity in CD-1 mouse assessed as recovery time against maximal electroshock induced seizure at 600 mg/kg,po administrated for 30 mins", "assay_type": "functional", "settings": "0.5 h"}, "[17]": {"system": "Mus musculus", "assay": "Anticonvulsant activity in CD-1 mouse assessed as protection against maximal electroshock induced seizure at po administration for 30 mins", "assay_type": "functional", "settings": "CD-1, 0.5 h"}, "[18]": {"system": "Mus musculus", "assay": "Anticonvulsant activity in CD-1 mouse assessed as protection against PTZ induced seizure at po administration for 30 mins", "assay_type": "functional", "settings": "CD-1, 0.5 h"}, "[19]": {"assay": "Neurotoxicity in CD-1 mouse assessed as reduction in locomotor activity at 600 mg/kg,po administrated for 30 mins", "assay_type": "toxicity, organism-based", "parameters": "scale not given: the % may be the effect or the level left", "settings": "in vivo, 0.5 h"}, "[20]": {"assay": "Neurotoxicity in CD-1 mouse assessed as reduction in locomotor activity at 300 mg/kg,po administrated for 30 mins", "assay_type": "toxicity, organism-based", "parameters": "scale not given: the % may be the effect or the level left", "settings": "in vivo, 0.5 h"}, "[21]": {"assay": "Neurotoxicity in CD-1 mouse assessed as lethal dose at po administration for 30 mins", "assay_type": "toxicity, organism-based", "settings": "in vivo"}, "[22]": {"system": "Rattus norvegicus", "assay": "Anticonvulsant activity in Sprague-Dawley rat assessed as protection against maximal electroshock induced seizure at po administration", "assay_type": "functional"}, "[23]": {"system": "Mus musculus", "assay": "Anticonvulsant activity in mouse assessed as protection against 6-Hz induced seizure at ip administration upto 2 hrs", "assay_type": "functional"}, "[24]": {"assay": "Toxicity in Sprague-Dawley rat assessed as median toxic dose at po administrated upto 4 hrs by rotorod test", "assay_type": "organism-based", "settings": "in vivo"}, "[25]": {"assay": "as §1, with “in Sprague-Dawley” for “in Wistar”, “administration upto” for “administration for”", "assay_type": "organism-based", "settings": "in vivo, read-out: Ratio TD50/ED50"}, "[26]": {"system": "Mus musculus", "assay": "Anticonvulsant activity in Swiss mouse assessed as protection against Sc-PTZ induced seizure at ip administration", "assay_type": "functional"}, "[27]": {"assay": "Neurotoxicity in Swiss mouse assessed as median toxicity dose at ip administration by rotorod test", "assay_type": "organism-based", "settings": "in vivo"}, "[28]": {"system": "Mus musculus", "assay": "Anticonvulsant activity against bicuculline induced Swiss mouse seizure model assessed as inhibition of tonic seizures at 50 mg/kg,ip administration for 30 mins", "assay_type": "functional", "settings": "0.5 h"}, "[29]": {"system": "Mus musculus", "assay": "Anticonvulsant activity against bicuculline induced Swiss mouse seizure model assessed as inhibition of clonic seizures at 50 mg/kg,ip administration for 30 mins", "assay_type": "functional", "settings": "0.5 h"}, "[30]": {"assay": "Toxicity in bicuculline induced Swiss mouse seizure model assessed as death at 50 mg/kg,ip administration for 30 mins", "assay_type": "organism-based", "settings": "in vivo, read-out: Activity"}, "[31]": {"system": "Mus musculus", "assay": "Anticonvulsant activity against 3-MP induced Swiss mouse seizure model assessed as inhibition of tonic seizures at 50 mg/kg,ip administration for 30 mins", "assay_type": "functional", "settings": "0.5 h"}, "[32]": {"system": "Mus musculus", "assay": "Anticonvulsant activity against 3-MP induced Swiss mouse seizure model assessed as inhibition of clonic seizures at 50 mg/kg,ip administration for 30 mins", "assay_type": "functional", "settings": "0.5 h"}, "[33]": {"assay": "Toxicity in 3-MP induced Swiss mouse seizure model assessed as death at 50 mg/kg,ip administration for 30 mins", "assay_type": "organism-based", "settings": "in vivo, read-out: Activity"}, "[34]": {"system": "Mus musculus", "assay": "Anticonvulsant activity in Albino mouse assessed as protection against maximal electroshock induced seizure at ip administration", "assay_type": "functional"}, "[35]": {"system": "Mus musculus", "assay": "Anticonvulsant activity in Albino mouse assessed as protection against Sc-metrazol induced seizure at ip administration", "assay_type": "functional"}, "[36]": {"system": "Mus musculus", "assay": "Anticonvulsant activity in Albino mouse assessed as protection against 6-Hz psychomotor induced seizure at ip administration", "assay_type": "functional"}, "[37]": {"system": "Rattus norvegicus", "assay": "Anticonvulsant activity in Sprague-Dawley rat assessed as protection against Sc-metrazol induced seizure at po administration", "assay_type": "functional"}, "[38]": {"system": "Rattus norvegicus", "assay": "Anticonvulsant activity in Sprague-Dawley rat assessed as protection against pilocarpine induced epilepticus at po administration", "assay_type": "functional"}, "[39]": {"assay": "Neurotoxicity in Sprague-Dawley rat assessed as median toxic dose at ip administration", "assay_type": "toxicity, organism-based", "settings": "in vivo"}, "[40]": {"assay": "Protective index, ratio of TD50 for toxicity in Sprague-Dawley rat at po administration to ED50 for anticonvulsant activity in Sprague-Dawley rat assessed as protection against pilocarpine induced epilepticus at po administration", "assay_type": "organism-based", "settings": "in vivo, read-out: Ratio TD50/ED50"}}}
{"smiles": "Cc1cccc(C)c1NC(=O)c1cc(CO)on1", "values": [{"measurement": "ED50", "setting": "[1]", "value": 8.7, "unit": "mg/kg"}, {"measurement": "ED50", "setting": "[2]", "value": "> 30", "unit": "mg/kg"}, {"measurement": "TD50 at 0.5 h", "setting": "[3]", "value": 28.5, "unit": "mg/kg"}]}
{"smiles": "Cl.Cl.O=C1CC(c2ccccc2)(c2ccccc2)CN1CN1CCN(c2ccccc2)CC1", "values": [{"measurement": "Activity", "setting": "[4]", "value": 25, "unit": "%"}, {"measurement": "Activity", "setting": "[5]", "value": 25, "unit": "%"}]}
{"smiles": "NC(=O)N1c2ccccc2C/C(=N/O)c2ccccc21", "values": [{"measurement": "ED50", "setting": "[6]", "value": 12, "unit": "mg/kg"}, {"measurement": "ED50", "setting": "[7]", "value": 20, "unit": "mg/kg"}, {"measurement": "ED50", "setting": "[8]", "value": 17, "unit": "mg/kg"}, {"measurement": "selectivity ratio at 2 h", "setting": "[9]", "value": "> 166"}, {"measurement": "selectivity ratio at 4 h", "setting": "[10]", "value": "> 100"}, {"measurement": "selectivity ratio at 8 h", "setting": "[11]", "value": "> 117"}, {"measurement": "IC50", "setting": "[12]", "value": 418, "unit": "µM"}]}
{"smiles": "O=C1Nc2ccc(Cl)cc2C(c2ccccc2)=NC1/N=N/c1ccc([N+](=O)[O-])cc1", "note": "(stereo not given)", "values": [{"measurement": "Activity", "setting": "[13]", "value": 100, "unit": "%"}]}
{"smiles": "CCCC(CCC)C(=O)Nc1ccccc1O", "values": [{"measurement": "Time", "setting": "[14]", "value": 93.26, "unit": "s"}, {"measurement": "Time", "setting": "[15]", "value": 30.66, "unit": "s"}, {"measurement": "Time", "setting": "[16]", "value": 5.75, "unit": "s"}, {"measurement": "ED50", "setting": "[17]", "value": 370, "unit": "mg/kg"}, {"measurement": "ED50", "setting": "[18]", "value": 348, "unit": "mg/kg"}, {"measurement": "Activity", "setting": "[19]", "value": 2.78, "unit": "%"}, {"measurement": "Activity", "setting": "[20]", "value": 60, "unit": "%"}, {"measurement": "LD50 at 0.5 h", "setting": "[21]", "value": 937, "unit": "mg/kg"}]}
{"smiles": "O=C1NC(c2ccccc2)(C2CC2)C(=O)N1CN1CCN(c2ccccc2)CC1", "note": "(stereo not given)", "values": [{"measurement": "ED50", "setting": "[22]", "value": 5.29, "unit": "mg/kg"}]}
{"smiles": "CCCC(COC(=O)Nc1ccc(S(N)(=O)=O)cc1)C(C)CC", "note": "(stereo not given)", "values": [{"measurement": "ED50", "setting": "[23]", "value": 74, "unit": "mg/kg"}]}
{"smiles": "CCOC(=O)C1C(=O)C=C(Nc2cc(C)on2)CC1C", "note": "(stereo not given)", "values": [{"measurement": "TD50 at 4 h", "setting": "[24]", "value": "> 500", "unit": "mg/kg"}, {"measurement": "selectivity ratio at 4 h", "setting": "[25]", "value": "> 49.6"}]}
{"smiles": "CN1C(=O)CC(=O)N(C)c2cc(NCc3ccc(F)cc3)ccc21", "values": [{"measurement": "ED50", "setting": "[26]", "value": 68, "unit": "mg/kg"}, {"measurement": "TD50", "setting": "[27]", "value": 164, "unit": "mg/kg"}, {"measurement": "inhibition in vivo at 50 mg/kg", "setting": "[28]", "value": 100, "unit": "%"}, {"measurement": "inhibition in vivo at 50 mg/kg", "setting": "[29]", "value": 80, "unit": "%"}, {"measurement": "mortality at 0.5 h", "setting": "[30]", "value": 70, "unit": "%"}, {"measurement": "inhibition in vivo at 50 mg/kg", "setting": "[31]", "value": 80, "unit": "%"}, {"measurement": "inhibition in vivo at 50 mg/kg", "setting": "[32]", "value": 100, "unit": "%"}, {"measurement": "mortality at 0.5 h", "setting": "[33]", "value": 20, "unit": "%"}]}
{"smiles": "CCCC(CC)C(=O)NOC", "note": "(stereo not given)", "values": [{"measurement": "ED50", "setting": "[34]", "value": 142, "unit": "mg/kg"}, {"measurement": "ED50", "setting": "[35]", "value": 70, "unit": "mg/kg"}, {"measurement": "ED50", "setting": "[36]", "value": 50, "unit": "mg/kg"}, {"measurement": "ED50", "setting": "[37]", "value": 36, "unit": "mg/kg"}, {"measurement": "ED50", "setting": "[38]", "value": 200, "unit": "mg/kg"}, {"measurement": "TD50", "setting": "[39]", "value": 118, "unit": "mg/kg"}, {"measurement": "selectivity ratio", "setting": "[40]", "value": "> 5.5"}]}
